Test: Normal organ dosimetry Cycle 1: SPECT/CT, TIACs, OLINDA 2.2.3 absorbed radiation dose
Assay type: in vivo, human
Settings: for Absorbed Dose, min / Absorbed Dose, Mean / Absorbed Dose, max / Absorbed Dose, median: Cycle 1
Procedure: This Example presents the biodistribution, dosimetry, and pharmacokinetics (PK) results of a PK/Dosimetry sub-study performed as part of a Phase III trial. Twenty-seven (27) patients were administered a target activity of 7.4±10% GBq of ^177Lu-PSMA-I&T and underwent single photon emission computed tomography (SPECT)/computed tomography (CT) imaging at four timepoints (4 h, 24 h, 48 h, and 168 h). Image data was analysed to compute time-activity curves (TACs) and subsequently time-integrated activity coefficients (TIACs) in each organ of interest and in organs showing appreciable and meaningful ^177Lu-PSMA-I&T activity. Organ Level Internal Dose Assessment (OLINDA 2.2.3) was used to compute organ and whole body absorbed radiation doses for each patient.
All participating sites underwent a rigorous site setup process during which all dose calibrators, scanners, and gamma counters used in the sub-study were calibrated. Sites were allowed to enroll patients in the sub-study only after the completion and approval of all site setup processes by Invicro. Patients underwent SPECT/CT imaging, with anatomical coverage typically extending from the salivary glands to the pelvis, following the administration of a targeted 7.4±10% GBq of ^177Lu-PSMA-I&T at cycle 1. SPECT/CT imaging was performed at four timepoints: 4 h, 24 h, 48 h, and 168 h post-injection. Additionally, a subset of patients imaged at Cycle 1 (16 out of 27), were also imaged at Cycle 3 (Table 2).
The imaging data was analyzed using Invicro's VivoQuant software, a validated software used in a 21 CFR § 11-compliant workflow. The general quantification approach was based on the principles detailed in the Medical Internal Radiation Dose (MIRD) Pamphlet No. 16, No 23, and No 26 as appropriate.
Volume of interest (VOI) (kidneys, bladder, liver, lumbar vertebrae L2-L4, lacrimal glands, salivary glands [parotid and submandibular glands], and whole body) were delineated on each dataset by a trained image analyst. […] Organs were segmented either by drawing the entire contour of the organ, or by placing a sphere in a representative region of the organ and then multiplying by the organ's effective mass (based on patient's height and weight). Segmentation methods for each organ are specified in Table 3 and were consistently applied to each patient.
Clearance of the radiopharmaceutical was derived from a data-appropriate fit of each organ's TAC. Depending on the TAC's shape, the data was fitted with the sum of one, two, or three exponentials, or using a rise and fall model. Fitting was performed with in-house Python software. TIACs were calculated through analytical integration of the curve fit extrapolated to infinity. […] A whole-body TAC was derived from delineating the imaged body. The remainder activity was determined by subtracting the cumulative organ TIACs from the whole body TIAC.
Organ TIACs were input into OLINDA 2.2.3 for the computation of organ and whole-body absorbed doses, using International Commission on Radiological Protection (ICRP)-103 weighing factors. The ICRP-89 derived male phantom was used for dose estimation. Organs and body mass as defined by ICRP-89 were scaled based on height and mass using patient effective mass.^4 The voiding bladder model as implemented in OLINDA was used to determine bladder TIAC, assuming a voiding interval of 4 hours. The human alimentary tract model (HAT model) described in ICRP 100 and implemented in OLINDA was used to compute doses to the small intestine, right colon, left colon and rectum for patients showing clearance through the GI tract. The fraction of injected activity (fIA) cleared via the GI tract was determined by taking the peak fIA in the GI tract over all the imaging timepoints. […] The Red Marrow mass in L2-L4 was assumed to be 6.7% of the total red marrow mass.

[1] = Prostate, 16 patients imaged at cycle 1 and 3
[2] = Rectum, 16 patients imaged at cycle 1 and 3
[3] = Red Marrow, 16 patients imaged at cycle 1 and 3
[4] = Right Colon, 16 patients imaged at cycle 1 and 3
[5] = Salivary Glands, 16 patients imaged at cycle 1 and 3
[6] = Salivary Glands, n = 26, patient 12-004 excluded
[7] = Small intestine, 16 patients imaged at cycle 1 and 3
[8] = Spleen, 16 patients imaged at cycle 1 and 3

SMILES: O=C([O-])CC[C@H](NC(=O)N[C@@H](CCCCNC(=O)CCCCCCC(=O)NCCCC[C@@H](NC(=O)[C@@H](Cc1ccccc1)NC(=O)[C@@H](Cc1ccc(O)c(I)c1)NC(=O)CC[C@H](C(=O)[O-])N1CCN(CC(=O)[O-])CCN(CC(=O)[O-])CCN(CC(=O)[O-])CC1)C(=O)[O-])C(=O)[O-])C(=O)[O-].[177Lu+3].[H+].[H+].[H+].[H+].[H+] [^177Lu-PSMA I&T, (3S,7S,26R,29R,32R,37R)-29-benzyl-32-(4-hydroxy-3-iodobenzyl)-5,13,20,28,31,34-hexaoxo-37-(4,7,10-tris(carboxymethyl)-1,4,7,10-tetraazacyclododecan-1-yl)-4,6,12,21,27,30,33-heptaazaheptatriacontane-1,3,7,26,37-pentacarboxylic acid; lutetium-177 (III)]
- Absorbed Dose, min (Pancreas, n = 26): 0.00 Gy/GBq
- Absorbed Dose in Cycle 1, Mean (Pancreas, N = 16): 0.02 Gy/GBq
- Absorbed Dose in Cycle 1, max (Pancreas, N = 16): 0.07 Gy/GBq
- Absorbed Dose in Cycle 1, min (Pancreas, N = 16): 0.00 Gy/GBq
- Absorbed Dose in Cycle 1, Mean [1]: 0.02 Gy/GBq
- Absorbed Dose in Cycle 1, max [1]: 0.07 Gy/GBq
- Absorbed Dose in Cycle 1, min [1]: 0.01 Gy/GBq
- Absorbed Dose, Mean (Prostate, n = 26): 0.02 Gy/GBq
- Absorbed Dose, max (Prostate, n = 26): 0.07 Gy/GBq
- Absorbed Dose, median (Prostate, n = 26): 0.01 Gy/GBq
- Absorbed Dose, min (Prostate, n = 26): 0.01 Gy/GBq
- Absorbed Dose in Cycle 1, Mean (Prostate, N = 16): 0.02 Gy/GBq
- Absorbed Dose in Cycle 1, max (Prostate, N = 16): 0.07 Gy/GBq
- Absorbed Dose in Cycle 1, min (Prostate, N = 16): 0.01 Gy/GBq
- Absorbed Dose in Cycle 1, Mean [2]: 0.50 Gy/GBq
- Absorbed Dose in Cycle 1, max [2]: 1.46 Gy/GBq
- Absorbed Dose in Cycle 1, min [2]: 0.01 Gy/GBq
- Absorbed Dose, Mean (Rectum, n = 26): 0.44 Gy/GBq
- Absorbed Dose, max (Rectum, n = 26): 1.46 Gy/GBq
- Absorbed Dose, median (Rectum, n = 26): 0.39 Gy/GBq
- Absorbed Dose, min (Rectum, n = 26): 0.01 Gy/GBq
- Absorbed Dose in Cycle 1, Mean (Rectum, N = 16): 0.50 Gy/GBq
- Absorbed Dose in Cycle 1, max (Rectum, N = 16): 1.46 Gy/GBq
- Absorbed Dose in Cycle 1, min (Rectum, N = 16): 0.01 Gy/GBq
- Absorbed Dose in Cycle 1, Mean [3]: 0.05 Gy/GBq
- Absorbed Dose in Cycle 1, max [3]: 0.28 Gy/GBq
- Absorbed Dose in Cycle 1, min [3]: 0.00 Gy/GBq
- Absorbed Dose, Mean (Red Marrow, n = 26): 0.08 Gy/GBq
- Absorbed Dose, max (Red Marrow, n = 26): 0.49 Gy/GBq
- Absorbed Dose, median (Red Marrow, n = 26): 0.03 Gy/GBq
- Absorbed Dose, min (Red Marrow, n = 26): 0.00 Gy/GBq
- Absorbed Dose in Cycle 1, Mean (Red Marrow, N = 16): 0.05 Gy/GBq
- Absorbed Dose in Cycle 1, max (Red Marrow, N = 16): 0.28 Gy/GBq
- Absorbed Dose in Cycle 1, min (Red Marrow, N = 16): 0.00 Gy/GBq
- Absorbed Dose in Cycle 1, Mean [4]: 0.28 Gy/GBq
- Absorbed Dose in Cycle 1, max [4]: 0.82 Gy/GBq
- Absorbed Dose in Cycle 1, min [4]: 0.01 Gy/GBq
- Absorbed Dose, Mean (Right Colon, n = 26): 0.25 Gy/GBq
- Absorbed Dose, max (Right Colon, n = 26): 0.82 Gy/GBq
- Absorbed Dose, median (Right Colon, n = 26): 0.22 Gy/GBq
- Absorbed Dose, min (Right Colon, n = 26): 0.01 Gy/GBq
- Absorbed Dose in Cycle 1, Mean (Right Colon, N = 16): 0.28 Gy/GBq
- Absorbed Dose in Cycle 1, max (Right Colon, N = 16): 0.82 Gy/GBq
- Absorbed Dose in Cycle 1, min (Right Colon, N = 16): 0.01 Gy/GBq
- Absorbed Dose in Cycle 1, Mean [5]: 0.17 Gy/GBq
- Absorbed Dose in Cycle 1, max [5]: 0.80 Gy/GBq
- Absorbed Dose in Cycle 1, min [5]: 0.03 Gy/GBq
- Absorbed Dose, Mean [6]: 0.19 Gy/GBq
- Absorbed Dose, max [6]: 0.80 Gy/GBq
- Absorbed Dose, median [6]: 0.15 Gy/GBq
- Absorbed Dose, min [6]: 0.03 Gy/GBq
- Absorbed Dose in Cycle 1, Mean (Salivary Glands, N = 16): 0.17 Gy/GBq
- Absorbed Dose in Cycle 1, max (Salivary Glands, N = 16): 0.80 Gy/GBq
- Absorbed Dose in Cycle 1, min (Salivary Glands, N = 16): 0.03 Gy/GBq
- Absorbed Dose in Cycle 1, Mean [7]: 0.06 Gy/GBq
- Absorbed Dose in Cycle 1, max [7]: 0.15 Gy/GBq
- Absorbed Dose in Cycle 1, min [7]: 0.01 Gy/GBq
- Absorbed Dose, Mean (Small intestine, n = 26): 0.05 Gy/GBq
- Absorbed Dose, max (Small intestine, n = 26): 0.15 Gy/GBq
- Absorbed Dose, median (Small intestine, n = 26): 0.04 Gy/GBq
- Absorbed Dose, min (Small intestine, n = 26): 0.01 Gy/GBq
- Absorbed Dose in Cycle 1, Mean (Small intestine, N = 16): 0.06 Gy/GBq
- Absorbed Dose in Cycle 1, max (Small intestine, N = 16): 0.15 Gy/GBq
- Absorbed Dose in Cycle 1, min (Small intestine, N = 16): 0.01 Gy/GBq
- Absorbed Dose in Cycle 1, Mean [8]: 0.03 Gy/GBq
- Absorbed Dose in Cycle 1, max [8]: 0.11 Gy/GBq
- Absorbed Dose in Cycle 1, min [8]: 0.01 Gy/GBq

— US20250032651A1, “[177LU] LUTETIUM-PSMA I&T COMPOSITION AND DOSIMETRY, KIT, METHOD OF MAKING, AND METHOD OF USING THEREOF” (Curium US LLC, priority 2022, published 2025)
